Numbers after ± are expanded uncertainties.
Columns and labels:
[1] = xn = mol fraction of the nth substance listed; conditions: 294 K; for mass density / viscosity: 101 kPa, Liquid; for mass density: Vibrating tube method
[2] = refractive index (Na D-line) (dimensionless); xn = mol fraction of the nth substance listed; conditions: 294 K, 101 kPa, Liquid, Standard Abbe refractometry

**Q.** What does the source list for `OCC(O)CO` [glycerol] + CCO?
**A.** surface tension liquid-gas ([1]; x2 = 0): 63.1 ± 3.2 mN/m; surface tension liquid-gas ([1]; x2 = 0.084): 52 ± 2.7 mN/m; surface tension liquid-gas ([1]; x2 = 0.1222): 48.8 ± 2.6 mN/m; surface tension liquid-gas ([1]; x2 = 0.1761): 43 ± 2.3 mN/m; surface tension liquid-gas ([1]; x2 = 0.2037): 41.7 ± 2.2 mN/m; surface tension liquid-gas ([1]; x2 = 0.2385): 39.4 ± 2.1 mN/m; surface tension liquid-gas ([1]; x2 = 0.2789): 35.8 ± 2 mN/m; surface tension liquid-gas ([1]; x2 = 0.351): 33.2 ± 1.9 mN/m; surface tension liquid-gas ([1]; x2 = 0.4138): 29.7 ± 1.7 mN/m; surface tension liquid-gas ([1]; x2 = 0.4841): 28.5 ± 1.6 mN/m; surface tension liquid-gas ([1]; x2 = 0.5497): 27.1 ± 1.6 mN/m; surface tension liquid-gas ([1]; x2 = 0.6046): 25.1 ± 1.5 mN/m; surface tension liquid-gas ([1]; x2 = 0.6526): 24.3 ± 1.4 mN/m; surface tension liquid-gas ([1]; x2 = 0.7451): 23.5 ± 1.4 mN/m; surface tension liquid-gas ([1]; x2 = 0.7984): 23.5 ± 1.4 mN/m; surface tension liquid-gas ([1]; x2 = 0.8336): 23 ± 1.4 mN/m; surface tension liquid-gas ([1]; x2 = 0.8777): 22.5 ± 1.4 mN/m; surface tension liquid-gas ([1]; x2 = 0.9353): 22.4 ± 1.4 mN/m; surface tension liquid-gas ([1]; x2 = 0.9596): 22.3 ± 1.3 mN/m; mass density ([1]; x2 = 0): 1261.51 ± 0.34 kg/m3; mass density ([1]; x2 = 0.084): 1233.48 ± 0.75 kg/m3; mass density ([1]; x2 = 0.1222): 1220.3 ± 0.77 kg/m3; mass density ([1]; x2 = 0.1761): 1201.19 ± 0.78 kg/m3; mass density ([1]; x2 = 0.2037): 1191.35 ± 0.79 kg/m3; mass density ([1]; x2 = 0.2385): 1178.37 ± 0.81 kg/m3; mass density ([1]; x2 = 0.2789): 1162.98 ± 0.84 kg/m3; mass density ([1]; x2 = 0.351): 1134.3 ± 0.86 kg/m3; mass density ([1]; x2 = 0.4138): 1108.32 ± 0.9 kg/m3; mass density ([1]; x2 = 0.4841): 1077.53 ± 0.94 kg/m3; mass density ([1]; x2 = 0.5497): 1047.03 ± 0.98 kg/m3; mass density ([1]; x2 = 0.6046): 1020.27 ± 1 kg/m3; mass density ([1]; x2 = 0.6526): 995.96 ± 1.1 kg/m3; mass density ([1]; x2 = 0.7451): 946.41 ± 1.1 kg/m3; mass density ([1]; x2 = 0.7984): 916.05 ± 1.2 kg/m3; mass density ([1]; x2 = 0.8336): 895.63 ± 1.2 kg/m3; mass density ([1]; x2 = 0.8777): 868.79 ± 1.2 kg/m3; mass density ([1]; x2 = 0.9353): 832.89 ± 1.3 kg/m3; mass density ([1]; x2 = 0.9596): 816.85 ± 1.4 kg/m3; viscosity ([1]; x2 = 0): 1390 ± 350 mPa·s; viscosity ([1]; x2 = 0.084): 800.5 ± 160 mPa·s; viscosity ([1]; x2 = 0.1222): 627.9 ± 120 mPa·s; viscosity ([1]; x2 = 0.1761): 450 ± 73 mPa·s; viscosity ([1]; x2 = 0.2037): 385.1 ± 58 mPa·s; viscosity ([1]; x2 = 0.2385): 270 ± 34 mPa·s; viscosity ([1]; x2 = 0.2789): 220.5 ± 24 mPa·s; viscosity ([1]; x2 = 0.351): 141.4 ± 11 mPa·s; viscosity ([1]; x2 = 0.4138): 80.71 ± 4.3 mPa·s; viscosity ([1]; x2 = 0.4841): 54.01 ± 2.7 mPa·s; viscosity ([1]; x2 = 0.5497): 31.52 ± 2.2 mPa·s; viscosity ([1]; x2 = 0.6046): 20.31 ± 2.1 mPa·s; viscosity ([1]; x2 = 0.6526): 16.7 ± 2.1 mPa·s; viscosity ([1]; x2 = 0.7451): 9.096 ± 2 mPa·s; viscosity ([1]; x2 = 0.7984): 5.217 ± 2 mPa·s; viscosity ([1]; x2 = 0.8336): 4.1 ± 2 mPa·s; viscosity ([1]; x2 = 0.8777): 3.037 mPa·s; viscosity ([1]; x2 = 0.9353): 1.898 mPa·s; viscosity ([1]; x2 = 0.9596): 1.49 mPa·s; refractive index ([2]; x2 = 0): 1.474 ± 0.0035; refractive index ([2]; x2 = 0.084): 1.468 ± 0.0035; refractive index ([2]; x2 = 0.1222): 1.466 ± 0.0035; refractive index ([2]; x2 = 0.1761): 1.4619 ± 0.0035; refractive index ([2]; x2 = 0.2037): 1.4592 ± 0.0034; refractive index ([2]; x2 = 0.2385): 1.4562 ± 0.0034; refractive index ([2]; x2 = 0.2789): 1.4528 ± 0.0034; refractive index ([2]; x2 = 0.351): 1.447 ± 0.0034; refractive index ([2]; x2 = 0.4138): 1.4392 ± 0.0034; refractive index ([2]; x2 = 0.4841): 1.4326 ± 0.0034; refractive index ([2]; x2 = 0.5497): 1.4253 ± 0.0034; refractive index ([2]; x2 = 0.6046): 1.4179 ± 0.0034; refractive index ([2]; x2 = 0.6526): 1.4131 ± 0.0033; refractive index ([2]; x2 = 0.7451): 1.4016 ± 0.0033; refractive index ([2]; x2 = 0.7984): 1.3934 ± 0.0033; refractive index ([2]; x2 = 0.8336): 1.3885 ± 0.0033; refractive index ([2]; x2 = 0.8777): 1.3815 ± 0.0033; refractive index ([2]; x2 = 0.9353): 1.3727 ± 0.0032; refractive index ([2]; x2 = 0.9596): 1.3681 ± 0.0032

**Q.** With `CCO` [ethanol] + OCC(O)CO as the compound, how does the surface tension liquid-gas ([1]; x1 = 1) read?
**A.** 22.2 ± 1.3 mN/m

**Q.** And the mass density ([1]; x1 = 1)?
**A.** 789.91 ± 0.22 kg/m3

**Q.** And the viscosity ([1]; x1 = 1)?
**A.** 1.214 mPa·s

**Q.** And the refractive index ([2]; x1 = 1)?
**A.** 1.3618 ± 0.0032
